# Laboratory results from patent US8709803B2, “Cell transport system comprising a homogeneous mixture of agarose and agarase” (Histocell, S.L., priority 2008, dated 2014).
# What was measured:
# SK-N-MC cells [1] = experiment: Proliferation assay with MTT on plates treated with laminin (FIG. 8a); assay type: cell-based, human; conditions: plate treated with laminin vs standard 24-well plate
# Method: (§1) As a result, SK-N-MC cells were cultured in standard 24-well plates and in 24-well plates previously treated with laminin (Laminin 24-well Multiwell plates, BD) at a cell density of 300,000 cells per well and 1 ml of specific medium consisting of MEM medium supplemented with 2 mM L-glutamine, 1 mM sodium pyruvate, 0.1 mM non-essential amino acids, […] of gentamicin and 1% antibiotic at 37° C. and 5% CO2.
# (§2) The day after seeding the SK-N-MC cells in the standard 24-well plates and in 24-well plates treated with laminin, transport conditions are simulated according to the specifications described in the previous example.
# Once the time necessary for the cells to recover from transport has elapsed, the proliferation rate of both cultures is determined by means of measuring cell proliferation at times 24 and 48 h using the MTT test described in the previous example.
# SK-N-MC cells [2] = experiment: Verification of morphology and cell density by microscopy on plates treated with laminin (FIG. 8b); assay type: cell-based, human; conditions: plates with laminin vs normal plate, same number of starting cells
# Method: as §1, §2
# In turn, the analysis of the cell morphology of the cultures of SK-N-MC in normal 24-well plates and 24-well plates treated with laminin shown in FIG. 8b proves that the number of cells in the culture in plates with laminin is greater than that of the culture in a normal plate despite the fact that the number of starting cells for both of them is the same, which reaffirms the results obtained from measuring the proliferation by means of MTT. The non-detection of the difference in the cell density by the proliferation assay by means of MTT can be due to the high cell confluence of both cultures.
substance,measurement,setting,value
laminin,proliferation rate (MTT),SK-N-MC cells [1]; after 24 hours in culture,an increase in the proliferation
same,proliferation rate (MTT),SK-N-MC cells [1]; after 48 hours in culture,equal
same,number of cells in the culture (microscopy),SK-N-MC cells [2],greater
